Laboratory results reported in ChEMBL document CHEMBL4177622, “Enhanced radical scavenging activity of a procyanidin B3 analogue comprised of a dimer of planar catechin” (Bioorg Med Chem Lett, 2017).

Assay: Antioxidant activity assessed as second order rate constant for galvinoxyl radical scavenging activity in presence of deaerated conditions by UV-Vis spectrophotometric analysis
Assay type: functional

Going from `CC1(C)O[C@H]2Cc3c(O)cc(O)cc3O[C@@H]2c2cc(O)c(O)cc21` to `CC1(C)O[C@H]2Cc3c(O)cc(O)c([C@@H]4c5c(O)cc(O)cc5O[C@H](c5ccc(O)c(O)c5)[C@H]4O)c3O[C@@H]2c2cc(O)c(O)cc21`, the K rises from 1.5 ×10² /mol/s to 1.89 ×10² /mol/s.

Going from `CC1(C)O[C@H]2[C@H](c3c(O)cc(O)c4c3O[C@@H]3c5cc(O)c(O)cc5C(C)(C)O[C@H]3C4)c3c(O)cc(O)cc3O[C@@H]2c2cc(O)c(O)cc21` to `Oc1cc(O)c2c(c1)O[C@H](c1ccc(O)c(O)c1)[C@@H](O)[C@@H]2c1c(O)cc(O)c2c1O[C@H](c1ccc(O)c(O)c1)[C@@H](O)C2`, the K falls from 2.85 ×10² /mol/s to 1 ×10² /mol/s.

`Oc1cc(O)c2c(c1)O[C@H](c1ccc(O)c(O)c1)[C@@H](O)C2` gave a K of 2.6 ×10¹ /mol/s.
